These results are taken from US9650339B2, “Inhibitors of histone demethylases” (Gilead Sciences, Inc., priority 2013, dated 2017).

The target in one assay is T1, KDM7 (PHF8) (Homo sapiens, UniProt Q9UPP1).
T1 construct: KDM7 (PHF8); BRIC; 1-1322; Bac
Briefly: Histone lysine demethylase AlphaLISA assay, KDM7. It is filed as biochemical. Particulars: read-out: PHF8 HDME Inhibition IC50. The method, then:
(§1) Assays are performed analogously to the protocol described by PerkinElmer (Roy et al. PerkinElmer Technical Note: AlphaLISA #12, April 2011)
(§2) Enzymes are dissolved in enzyme buffer and incubated for 10 min before being added to 3% DMSO solutions of compounds in enzyme buffer. Incubated for another 10 minutes, before substrate solution is added and the reaction mixture is incubated at room temperature. 10 μL acceptor beads, suspended in Epigenetic Buffer (Perkin Elmer AL008) from stock, are added and the suspension is incubated in the dark at room temperature, before a suspension of streptavidin donor beads (Perkin Elmer 6760002) in Epigenetic Buffer is added. After incubation at room temperature in the dark the plates are read. […]
BK9M2: Biotin-ARTKQTAR(KMe2)STGGKAPRKQ-NH2 (AnaSpec 64359)
BK9M1: Biotin-ARTKQTAR(KMe1)STGGKAPRKQ-NH2 (AnaSpec 64358) […]
(§3) Substrate Solution: Substrate, 25 μM L-Asc, and 10 μM α-KG in Buffer A.

In another assay the target is T2, KDM4C (Homo sapiens, UniProt Q9H3R0).
T2 construct: Full length; host or cells: U2OS
T2 sequence (Q9H3R0 1-1056): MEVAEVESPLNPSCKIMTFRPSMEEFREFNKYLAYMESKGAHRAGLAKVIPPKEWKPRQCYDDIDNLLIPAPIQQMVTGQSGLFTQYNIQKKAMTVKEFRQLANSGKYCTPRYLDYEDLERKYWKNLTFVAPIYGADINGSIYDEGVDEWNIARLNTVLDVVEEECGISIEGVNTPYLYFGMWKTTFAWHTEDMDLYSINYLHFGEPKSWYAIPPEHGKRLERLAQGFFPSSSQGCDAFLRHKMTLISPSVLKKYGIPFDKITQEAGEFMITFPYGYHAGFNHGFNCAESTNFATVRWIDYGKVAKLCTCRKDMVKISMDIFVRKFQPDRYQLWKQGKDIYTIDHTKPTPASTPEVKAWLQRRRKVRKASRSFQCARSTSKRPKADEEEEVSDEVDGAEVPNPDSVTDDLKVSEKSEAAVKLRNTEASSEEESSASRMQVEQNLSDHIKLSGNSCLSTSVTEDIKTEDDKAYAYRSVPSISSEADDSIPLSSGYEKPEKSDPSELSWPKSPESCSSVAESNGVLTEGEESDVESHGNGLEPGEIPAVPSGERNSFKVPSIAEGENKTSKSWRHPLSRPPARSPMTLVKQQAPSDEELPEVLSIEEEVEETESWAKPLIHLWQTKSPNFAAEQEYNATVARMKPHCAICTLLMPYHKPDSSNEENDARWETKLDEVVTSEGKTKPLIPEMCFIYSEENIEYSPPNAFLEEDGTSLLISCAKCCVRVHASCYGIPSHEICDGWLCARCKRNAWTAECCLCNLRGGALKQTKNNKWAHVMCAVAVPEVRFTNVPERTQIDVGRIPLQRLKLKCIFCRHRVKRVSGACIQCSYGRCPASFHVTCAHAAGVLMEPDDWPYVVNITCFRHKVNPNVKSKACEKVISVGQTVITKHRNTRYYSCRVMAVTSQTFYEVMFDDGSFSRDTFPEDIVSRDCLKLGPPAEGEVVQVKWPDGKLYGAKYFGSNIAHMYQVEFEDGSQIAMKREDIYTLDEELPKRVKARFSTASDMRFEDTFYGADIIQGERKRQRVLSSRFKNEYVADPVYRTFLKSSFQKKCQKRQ
As to the kind of experiment: Histone lysine demethylase immunofluorescence assay, U2OS cells transfected with KDM4C. Format: cell-based. The following applies: U2OS cells transfected with pCMVHA KDM4C; mark detected H3K9me3; 20 hours. As to the method:
U2OS cells were seeded 24 hours before transfection. Transfection was performed with Fugene HD transfection reagent as recommended by the manufacturer. 6 hours after transfection, the cells were harvested and seeded into multi well plates into media containing compound. The media used was DMEM containing 10% FBS and pen/strep. 20 hours after incubation of cells with compounds, the cells were washed in PBS, harvested by fixation with formaldehyde 4% aqueous solution, and washed in PBS. Subsequently, the cells were permeabilized in PBS with 0.2% Triton X-100 for. Blocking was performed in PBS with 0.2% Triton X-100 and 5% FBS. The cells were incubated with primary antibodies in blocking solution over night at 4° C. The primary antibodies used in the assays were HA.11 (Covance, MMS-101P) and the antibody detecting the mark specified in the table below. After incubation with primary antibodies, the cells were washed with PBS, incubated with secondary antibodies (Alexa fluor 594 goat anti rabbit IgG, Invitrogen, A11012; Alexa flour 488 donkey anti mouse IgG, Invitrogen, A21202) and Hoechst, (Sigma, 33342) in blocking solution, and washed again with PBS. Finally, PBS was added and high throughput imaging and analysis were performed by an IN Cell Analyzer 1000 (GE Healthcare). The robot software analyzed individual cells and divided these into HA+ (transfected cells) and HA− (non-transfected cells). The IC50 values were based on an average measure of the staining of the mark specified in the table below in the transfected cells.

The next assay deals with T3, KDM4C (JMJD2C) (Homo sapiens, UniProt Q9H3R0).
T3 sequence (Q9H3R0 1-349): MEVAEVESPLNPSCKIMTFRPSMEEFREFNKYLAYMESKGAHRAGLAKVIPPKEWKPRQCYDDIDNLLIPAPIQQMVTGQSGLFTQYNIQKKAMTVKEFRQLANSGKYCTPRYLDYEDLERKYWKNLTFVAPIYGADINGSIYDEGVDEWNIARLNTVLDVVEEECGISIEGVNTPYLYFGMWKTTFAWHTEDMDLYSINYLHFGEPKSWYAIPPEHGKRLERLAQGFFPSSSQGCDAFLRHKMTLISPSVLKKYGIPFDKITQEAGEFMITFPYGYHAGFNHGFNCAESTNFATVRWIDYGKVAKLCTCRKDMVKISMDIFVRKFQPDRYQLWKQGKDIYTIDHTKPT
As to the kind of experiment: Histone lysine demethylase AlphaLISA assay, KDM4C. Format: biochemical. The following applies: read-out: KDM4C HDME Inhibition IC50. The method in brief:
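Biotinylated methylated H3 peptides (K9, K4, K27 or K36 marks) served as substrate, with 25 μM L-Asc and 10 μM α-KG. Enzymes were preincubated 10 min, then exposed to compounds (3% DMSO solutions) 10 min; product detected by AlphaLISA acceptor and streptavidin donor beads at room temperature in dark.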
(In Alpha technology, singlet oxygen from a donor bead excites a nearby acceptor bead.)

The target in another assay is T4, KDM5C (JARID1C) (Homo sapiens, UniProt P41229).
T4 construct: 2-1560; purchased BPS; host or cells: Bac (baculovirus system)
T4 sequence (P41229 2-1560): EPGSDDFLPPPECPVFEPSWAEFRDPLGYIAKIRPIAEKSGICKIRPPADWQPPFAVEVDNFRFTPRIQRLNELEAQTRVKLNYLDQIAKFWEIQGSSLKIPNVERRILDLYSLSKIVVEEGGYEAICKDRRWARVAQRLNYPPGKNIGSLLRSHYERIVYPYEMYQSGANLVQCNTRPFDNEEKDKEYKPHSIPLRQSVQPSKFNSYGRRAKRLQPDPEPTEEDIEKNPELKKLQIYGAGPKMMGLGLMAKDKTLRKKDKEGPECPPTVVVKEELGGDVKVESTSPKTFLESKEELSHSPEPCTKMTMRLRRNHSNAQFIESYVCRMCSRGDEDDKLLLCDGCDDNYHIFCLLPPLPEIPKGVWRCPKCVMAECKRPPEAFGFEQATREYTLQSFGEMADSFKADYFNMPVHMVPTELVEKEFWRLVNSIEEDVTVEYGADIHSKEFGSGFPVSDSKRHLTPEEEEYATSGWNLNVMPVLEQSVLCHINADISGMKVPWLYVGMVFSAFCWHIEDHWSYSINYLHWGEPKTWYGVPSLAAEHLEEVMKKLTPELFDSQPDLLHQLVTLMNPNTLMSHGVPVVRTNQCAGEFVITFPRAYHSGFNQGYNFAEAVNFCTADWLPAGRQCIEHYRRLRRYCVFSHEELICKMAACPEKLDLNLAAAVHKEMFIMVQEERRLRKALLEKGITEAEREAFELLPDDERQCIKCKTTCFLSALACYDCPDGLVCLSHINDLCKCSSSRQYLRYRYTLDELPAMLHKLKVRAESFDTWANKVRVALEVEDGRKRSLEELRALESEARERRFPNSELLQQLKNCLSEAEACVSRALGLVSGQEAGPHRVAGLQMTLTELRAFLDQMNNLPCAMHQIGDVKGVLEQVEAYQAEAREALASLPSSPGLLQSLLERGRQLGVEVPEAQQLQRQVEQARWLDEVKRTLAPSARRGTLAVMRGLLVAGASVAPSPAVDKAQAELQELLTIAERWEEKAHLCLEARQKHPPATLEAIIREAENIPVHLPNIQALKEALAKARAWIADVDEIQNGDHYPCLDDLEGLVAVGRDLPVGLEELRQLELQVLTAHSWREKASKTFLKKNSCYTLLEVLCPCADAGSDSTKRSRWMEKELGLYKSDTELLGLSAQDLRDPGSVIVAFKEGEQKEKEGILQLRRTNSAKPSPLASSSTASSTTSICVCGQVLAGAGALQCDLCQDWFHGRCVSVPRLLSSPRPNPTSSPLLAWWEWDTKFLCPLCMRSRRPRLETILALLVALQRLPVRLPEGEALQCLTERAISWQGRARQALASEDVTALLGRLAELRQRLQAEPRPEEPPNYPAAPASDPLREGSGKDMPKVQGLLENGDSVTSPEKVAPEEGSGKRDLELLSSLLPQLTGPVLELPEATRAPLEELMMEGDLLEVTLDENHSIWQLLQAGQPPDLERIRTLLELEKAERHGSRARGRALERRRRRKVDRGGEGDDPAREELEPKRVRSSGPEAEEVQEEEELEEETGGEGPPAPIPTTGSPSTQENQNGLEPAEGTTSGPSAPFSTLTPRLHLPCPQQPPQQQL
As to the kind of experiment: Histone lysine demethylase AlphaLISA assay, KDM5C. The following applies: read-out: KDM5C HDME Inhibition IC50. Format: biochemical. The method, then:
as §1, §2
H3K4M3B: H-ART(Kme3)QTARKSTGGKAPRKQLA-NH-Biotin (Caslo, Denmark) […]
as §3

Broadly, the IC50 is the point on the concentration scale where inhibition reaches its midpoint.

T1 sequence (Q9UPP1 37-440 limits assumed): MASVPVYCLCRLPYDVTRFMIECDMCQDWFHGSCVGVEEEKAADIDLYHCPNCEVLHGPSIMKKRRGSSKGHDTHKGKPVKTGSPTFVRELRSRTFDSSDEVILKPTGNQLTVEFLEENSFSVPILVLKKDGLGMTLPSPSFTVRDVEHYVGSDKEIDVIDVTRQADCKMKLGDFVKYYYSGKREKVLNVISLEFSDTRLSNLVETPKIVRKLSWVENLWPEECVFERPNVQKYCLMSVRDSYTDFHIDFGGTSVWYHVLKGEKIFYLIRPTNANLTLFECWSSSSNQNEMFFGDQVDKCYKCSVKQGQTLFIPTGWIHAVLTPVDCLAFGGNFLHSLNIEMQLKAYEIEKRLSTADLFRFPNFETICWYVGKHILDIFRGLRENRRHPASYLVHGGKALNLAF

Consider `CN1CCN(C(=O)CNCc2cc(C=O)ccn2)CC1` [Compound 103, 2-({[2-(4-methylpiperazin-1-yl)-2-oxoethyl]-amino}methyl)-pyridine-4-carbaldehyde], for which the IC50 is greater than 2500 nM at KDM7 (PHF8), greater than 2500 nM against KDM4C, greater than 2500 nM on KDM4C (JMJD2C) and less than 250 nM on KDM5C (JARID1C).

Turning to `CN(C)CCCNCc1cc(CN)ccn1` [Compound 3, [2-({[3-(dimethylamino)propyl]-amino}methyl)pyridin-4-yl]methanamine], the IC50 on KDM7 (PHF8) is 250 to 2500 nM; against KDM4C, greater than 2500 nM; on KDM4C (JMJD2C) it was greater than 2500 nM; at KDM5C (JARID1C), less than 250 nM.

`CCN(CCN(C)C)C(=O)CNCc1cc(C=O)ccn1` [Compound 101]: the IC50 is 250 to 2500 nM at KDM7 (PHF8), 250 to 2500 nM against KDM4C, less than 250 nM on KDM4C (JMJD2C) and less than 250 nM at KDM5C (JARID1C).

Consider `CN(C)CCCCCNCc1cc(/C=N/C2CC2)ccn1` [Compound 47, N-{[2-({[5-(dimethylamino)-pentyl]amino}-methyl)pyridin-4-yl]methylidene}-cyclopropanamine], for which the IC50 on KDM7 (PHF8) was greater than 2500 nM; against KDM4C, 250 to 2500 nM; on KDM4C (JMJD2C), greater than 2500 nM; at KDM5C (JARID1C) it was less than 250 nM.

Take `CON=Cc1ccnc(CNCCCN(C)C)c1` [Compound 64, [3-(dimethylamino)-propyl]({4-[(methoxyimino)-methyl]pyridin-2-yl}methyl)amine]: the IC50 on KDM7 (PHF8), at KDM4C, on KDM4C (JMJD2C) and at KDM5C (JARID1C) was greater than 2500 nM each time.

With `CCCNCc1cc(CNC2CC2)ccn1` [Compound 12, N-({2-[(propylamino)methyl]-pyridin-4-yl}methyl)-cyclopropanamine], the IC50 on KDM7 (PHF8), at KDM4C, at KDM4C (JMJD2C) and at KDM5C (JARID1C) was greater than 2500 nM in each case.

Turning to `O=C(CNCc1cc(/C=N/C2CC2)ccn1)N1CCC[C@@H]1CN1CCCC1` [Compound 49, 2-[({4-[N-cyclopropyl-carboximidoyl]pyridin-2-yl}methyl)amino]-1-[(2R)-2-(pyrrolidin-1-ylmethyl)pyrrolidin-1-yl]ethan-1-one], the IC50 was 250 to 2500 nM on KDM7 (PHF8), 250 to 2500 nM on KDM4C, 250 to 2500 nM at KDM4C (JMJD2C) and less than 250 nM at KDM5C (JARID1C).

In the case of `CN1CCC(CNCc2cc(C=O)ccn2)CC1` [Compound 100, 2-({[(1-methyl-piperidin-4-yl)methyl]amino}-methyl)pyridine-4-carbaldehyde], the IC50 at KDM7 (PHF8) was greater than 2500 nM; against KDM4C, 250 to 2500 nM; at KDM4C (JMJD2C), greater than 2500 nM; on KDM5C (JARID1C) it was less than 250 nM.

Turning to `CC1CC1/N=C/c1ccnc(CNCC(=O)N(C)C)c1` (centres unmarked) [Compound 35, N,N-dimethyl-2-[({4-[N-(2-methylcyclopropyl)-carboximidoyl]pyridin-2-yl}methyl)amino]-acetamide], the IC50 at KDM7 (PHF8) was less than 250 nM; against KDM4C, 250 to 2500 nM; on KDM4C (JMJD2C) it was 250 to 2500 nM; at KDM5C (JARID1C), less than 250 nM.

With `C(=N/C1CC1)/c1ccnc(CNCCCN2CCCC2)c1` [Compound 42, N-{[2-({[3-(pyrrolidin-1-yl)propyl]amino}-methyl)pyridin-4-yl]methylidene}-cyclopropanamine], the IC50 at KDM7 (PHF8) was greater than 2500 nM; against KDM4C it was 250 to 2500 nM; at KDM4C (JMJD2C) it was greater than 2500 nM; at KDM5C (JARID1C) it was less than 250 nM.

For the compound `CCN(CC)CCCCNCc1cc(/C=N/CCOC)ccn1` [Compound 60, [4-(diethylamino)butyl]-({4-[[(2-methoxyethyl)imino]-methyl]pyridin-2-yl}methyl)amine], the IC50 on KDM7 (PHF8) is 250 to 2500 nM; on KDM4C (JMJD2C), greater than 2500 nM; on KDM5C (JARID1C), less than 250 nM.

Regarding `O=Cc1ccnc(CNCC(=O)N2CCC[C@@H]2CN2CCCC2)c1` [Compound 102, 2-[({2-oxo-2-[(2R)-2-(pyrrolidin-1-ylmethyl)pyrrolidin-1-yl]ethyl}amino)-methyl]pyridine-4-carbaldehyde], the concentration for half-maximal inhibition (IC50) at KDM7 (PHF8) was greater than 2500 nM; against KDM4C it was 250 to 2500 nM; at KDM4C (JMJD2C), less than 250 nM; at KDM5C (JARID1C), less than 250 nM.

Turning to `c1ccc(CN2CCC[C@H]2CNCc2cc(CNCC3CC3)ccn2)cc1` [Compound 16, {[(2S)-1-benzylpyrrolidin-2-yl]methyl}[(4-{[(cyclopropylmethyl)-amino]methyl}pyridin-2-yl)methyl]amine], the IC50 was 250 to 2500 nM at KDM7 (PHF8), greater than 2500 nM at KDM4C (JMJD2C) and 250 to 2500 nM at KDM5C (JARID1C).

As for `CCN(CCN(C)C)C(=O)CNCc1cc(CNC(=O)C(F)(F)F)ccn1` [Compound 25, N-[(2-{[({[2-(dimethylamino)ethyl]-(ethyl)carbamoyl}-methyl)amino]methyl}-pyrtdin-4-yl)methyl]-2,2,2-trifluoroacetamide], the IC50 is greater than 2500 nM at KDM7 (PHF8), greater than 2500 nM at KDM4C (JMJD2C) and 250 to 2500 nM at KDM5C (JARID1C).

Regarding `C(=N\C1CC1)/c1ccnc(CNCCCCN2CCC2)c1` [Compound 44, N-{[2-({[4-(azetidin-1-yl)butyl]amino}methyl)-pyridin-4-yl]methylidene}-cyclopropanamine], the IC50 at KDM7 (PHF8) was greater than 2500 nM; on KDM4C (JMJD2C), less than 250 nM; at KDM5C (JARID1C), less than 250 nM.

On to `CN(CCCn1cccn1)C(=O)CNCc1cc(/C=N/C2CC2)ccn1` [Compound 52, 2-[({4-[N-cyclopropyl-carboximidoyl]-pyridin-2-yl}methyl)amino]-N-methyl-N-[3-(1H-pyrazol-1-yl)propyl]acetamide], for which the concentration for half-maximal inhibition (IC50) against KDM4C was greater than 2500 nM; at KDM4C (JMJD2C), 250 to 2500 nM; on KDM5C (JARID1C) it was less than 250 nM.
